# According to paper PMC10883907, “Phage-display reveals interaction of lipocalin allergen Can f 1 with a peptide resembling the antigen binding region of a human γδT-cell receptor” (Biological Chemistry, 2020):
# Biological target: Can f 1 (Canis lupus, UniProt O18873)
# Assay: fluorescence titration (excitation […] nm, emission […] nm)
# Assay type: binding
# Can f 1, sequence (O18873 19-174): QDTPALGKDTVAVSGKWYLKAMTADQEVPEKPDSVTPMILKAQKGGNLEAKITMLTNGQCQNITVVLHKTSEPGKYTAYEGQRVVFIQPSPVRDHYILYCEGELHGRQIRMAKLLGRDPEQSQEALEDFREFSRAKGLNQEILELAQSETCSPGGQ
smiles,measurement,value
"O=S(=O)(O)c1cccc2cccc(Nc3ccccc3)c12 [ANS, 8-anilinonaphthalene-1-sulfonic acid]",Kd,2.1 µM
